# Reference: PubChem BioAssay (NCI)
#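 48-hour exposure; five concentrations; linearly interpolated endpoints. Here, GI50 denotes the concentration required for 50% inhibition of growth. TGI denotes the concentration required for complete inhibition of growth.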
# Columns and labels:
# Assay in all cases: NCI anticancer screen, dose series, 48 h
# SNB-75 CNS = tested on: SNB-75 CNS
# HOP-62 NSCLC = tested on: HOP-62 NSCLC
# T-47D breast = tested on: T-47D breast
# SW-620 colon = tested on: SW-620 colon
# A498 renal = tested on: A498 renal
# MDA-MB-435 = tested on: MDA-MB-435
# SNB-19 CNS = tested on: SNB-19 CNS
# NCI-H226 lung = tested on: NCI-H226 lung
# MCF7 breast = tested on: MCF7 breast
# HS 578T breast = tested on: HS 578T breast
# RPMI-8226 leukemia = tested on: RPMI-8226 leukemia
# HCT-15 colon = tested on: HCT-15 colon
# CCRF-CEM leukemia = tested on: CCRF-CEM leukemia
# KM12 colon = tested on: KM12 colon
# COLO 205 colon = tested on: COLO 205 colon
# MDA-MB-231 breast = tested on: MDA-MB-231 breast
# 786-0 renal = tested on: 786-0 renal
# SK-OV-3 ovarian = tested on: SK-OV-3 ovarian
# CAKI-1 renal = tested on: CAKI-1 renal
# SK-MEL-5 melanoma = tested on: SK-MEL-5 melanoma
# A549 NSCLC = tested on: A549 NSCLC
# IGROV1 ovarian = tested on: IGROV1 ovarian
# LOX IMVI melanoma = tested on: LOX IMVI melanoma
# SF-295 CNS = tested on: SF-295 CNS
# HOP-92 NSCLC = tested on: HOP-92 NSCLC
# OVCAR-5 ovarian = tested on: OVCAR-5 ovarian
# TK-10 renal = tested on: TK-10 renal
# NCI-H23 lung = tested on: NCI-H23 lung
# RXF 393 renal = tested on: RXF 393 renal
# HT29 colon = tested on: HT29 colon
# SF-539 CNS = tested on: SF-539 CNS
# OVCAR-3 ovarian = tested on: OVCAR-3 ovarian
# M14 melanoma = tested on: M14 melanoma
# BT-549 breast = tested on: BT-549 breast
# UACC-62 melanoma = tested on: UACC-62 melanoma
# NCI/ADR-RES ovarian = tested on: NCI/ADR-RES ovarian
# ACHN renal = tested on: ACHN renal
# SF-268 CNS = tested on: SF-268 CNS
# SK-MEL-28 melanoma = tested on: SK-MEL-28 melanoma
# SN12C renal = tested on: SN12C renal
# UACC-257 melanoma = tested on: UACC-257 melanoma
# SK-MEL-2 melanoma = tested on: SK-MEL-2 melanoma
# DU-145 prostate = tested on: DU-145 prostate
# MOLT-4 leukemia = tested on: MOLT-4 leukemia
# PC-3 prostate = tested on: PC-3 prostate
# K-562 leukemia = tested on: K-562 leukemia
# EKVX NSCLC = tested on: EKVX NSCLC
# NCI-H522 lung = tested on: NCI-H522 lung
# U251 CNS = tested on: U251 CNS
# NCI-H460 lung = tested on: NCI-H460 lung
# OVCAR-4 ovarian = tested on: OVCAR-4 ovarian
# HL-60(TB) leukemia = tested on: HL-60(TB) leukemia
# OVCAR-8 ovarian = tested on: OVCAR-8 ovarian
# UO-31 renal = tested on: UO-31 renal
# HCT-116 colon = tested on: HCT-116 colon
# HCC-2998 colon = tested on: HCC-2998 colon
# SR leukemia = tested on: SR leukemia
# MALME-3M melanoma = tested on: MALME-3M melanoma
compound,measurement,setting,value
CC1OC(OC2C(OC3CCC4(C)C(CCC5(C)C4CC=C4C6CC(C)(C)CCC6(CO)C(O)CC45C)C3(C)C)OC(C(=O)O)C(OC3OC(COC4OC(CO)C(O)C(O)C4O)C(O)C(O)C3O)C2O)C(O)C(O)C1O (stereo unspecified),GI50,SNB-75 CNS,11.2 µM
same,TGI,SNB-75 CNS,23 µM
same,GI50,HOP-62 NSCLC,14.8 µM
same,TGI,HOP-62 NSCLC,30.9 µM
same,GI50,T-47D breast,12.3 µM
same,TGI,T-47D breast,27.8 µM
same,GI50,SW-620 colon,12.5 µM
same,TGI,SW-620 colon,24.2 µM
same,GI50,A498 renal,13.2 µM
same,TGI,A498 renal,23.9 µM
same,GI50,MDA-MB-435,4.34 µM
same,TGI,MDA-MB-435,14.7 µM
same,GI50,SNB-19 CNS,13.9 µM
same,TGI,SNB-19 CNS,28 µM
same,GI50,NCI-H226 lung,3.35 µM
same,TGI,NCI-H226 lung,16.1 µM
same,GI50,MCF7 breast,11.4 µM
same,TGI,MCF7 breast,24.2 µM
same,GI50,HS 578T breast,13.1 µM
same,TGI,HS 578T breast,34.6 µM
same,GI50,RPMI-8226 leukemia,7.79 µM
same,TGI,RPMI-8226 leukemia,23.5 µM
same,GI50,HCT-15 colon,8.27 µM
same,TGI,HCT-15 colon,18.8 µM
same,GI50,CCRF-CEM leukemia,3.88 µM
same,TGI,CCRF-CEM leukemia,20.7 µM
same,GI50,KM12 colon,3.25 µM
same,TGI,KM12 colon,14.1 µM
same,GI50,COLO 205 colon,1.75 µM
same,TGI,COLO 205 colon,4.39 µM
same,GI50,MDA-MB-231 breast,10.8 µM
same,TGI,MDA-MB-231 breast,21.8 µM
same,GI50,786-0 renal,1.15 µM
same,TGI,786-0 renal,3.01 µM
same,GI50,SK-OV-3 ovarian,6.08 µM
same,TGI,SK-OV-3 ovarian,18 µM
same,GI50,CAKI-1 renal,10.6 µM
same,TGI,CAKI-1 renal,22.1 µM
same,GI50,SK-MEL-5 melanoma,11.5 µM
same,TGI,SK-MEL-5 melanoma,22.2 µM
same,GI50,A549 NSCLC,12.2 µM
same,TGI,A549 NSCLC,28.1 µM
same,GI50,IGROV1 ovarian,7.1 µM
same,TGI,IGROV1 ovarian,17.5 µM
same,GI50,LOX IMVI melanoma,10.7 µM
same,TGI,LOX IMVI melanoma,21.6 µM
same,GI50,SF-295 CNS,8.13 µM
same,TGI,SF-295 CNS,20.2 µM
same,GI50,HOP-92 NSCLC,3.56 µM
same,TGI,HOP-92 NSCLC,15.3 µM
same,GI50,OVCAR-5 ovarian,5.17 µM
same,TGI,OVCAR-5 ovarian,16.7 µM
same,GI50,TK-10 renal,16.1 µM
same,TGI,TK-10 renal,28.4 µM
same,GI50,NCI-H23 lung,1.77 µM
same,TGI,NCI-H23 lung,4.67 µM
same,GI50,RXF 393 renal,8.94 µM
same,TGI,RXF 393 renal,19.8 µM
same,GI50,HT29 colon,11.9 µM
same,TGI,HT29 colon,25.5 µM
same,GI50,SF-539 CNS,8.48 µM
same,TGI,SF-539 CNS,20.5 µM
same,GI50,OVCAR-3 ovarian,12.7 µM
same,TGI,OVCAR-3 ovarian,24.7 µM
same,GI50,M14 melanoma,2.5 µM
same,TGI,M14 melanoma,9.24 µM
same,GI50,BT-549 breast,1.15 µM
same,TGI,BT-549 breast,2.49 µM
same,GI50,UACC-62 melanoma,9.64 µM
same,TGI,UACC-62 melanoma,20.6 µM
same,GI50,NCI/ADR-RES ovarian,11.5 µM
same,TGI,NCI/ADR-RES ovarian,23.6 µM
same,GI50,ACHN renal,4.81 µM
same,TGI,ACHN renal,16.8 µM
same,GI50,SF-268 CNS,13.1 µM
same,TGI,SF-268 CNS,27.1 µM
same,GI50,SK-MEL-28 melanoma,1.96 µM
same,TGI,SK-MEL-28 melanoma,9.02 µM
same,GI50,SN12C renal,2.46 µM
same,TGI,SN12C renal,9.19 µM
same,GI50,UACC-257 melanoma,13.2 µM
same,TGI,UACC-257 melanoma,26.3 µM
same,GI50,SK-MEL-2 melanoma,8.57 µM
same,TGI,SK-MEL-2 melanoma,20.1 µM
same,GI50,DU-145 prostate,13.4 µM
same,TGI,DU-145 prostate,25.1 µM
same,GI50,MOLT-4 leukemia,2.35 µM
same,TGI,MOLT-4 leukemia,8.42 µM
same,GI50,PC-3 prostate,1.56 µM
same,TGI,PC-3 prostate,3.92 µM
same,GI50,K-562 leukemia,3.09 µM
same,TGI,K-562 leukemia,15.4 µM
same,GI50,EKVX NSCLC,2.41 µM
same,TGI,EKVX NSCLC,11.5 µM
same,GI50,NCI-H522 lung,1.43 µM
same,TGI,NCI-H522 lung,2.95 µM
same,GI50,U251 CNS,10.2 µM
same,TGI,U251 CNS,22.1 µM
same,GI50,NCI-H460 lung,12.1 µM
same,TGI,NCI-H460 lung,24.5 µM
same,GI50,OVCAR-4 ovarian,3.1 µM
same,TGI,OVCAR-4 ovarian,12.8 µM
same,GI50,HL-60(TB) leukemia,1.5 µM
same,TGI,HL-60(TB) leukemia,3.53 µM
same,GI50,OVCAR-8 ovarian,13.5 µM
same,TGI,OVCAR-8 ovarian,28.5 µM
same,GI50,UO-31 renal,5.45 µM
same,TGI,UO-31 renal,15.9 µM
same,GI50,HCT-116 colon,2.05 µM
same,TGI,HCT-116 colon,9.21 µM
same,GI50,HCC-2998 colon,1.73 µM
same,TGI,HCC-2998 colon,4.45 µM
same,GI50,SR leukemia,1.97 µM
same,TGI,SR leukemia,5.63 µM
same,GI50,MALME-3M melanoma,7.58 µM
same,TGI,MALME-3M melanoma,18.8 µM
